Here are results for 24 compounds from patent US8829203B2, “3′,6-substituted indirubins and their biological applications” (Centre National de la Recherche Scientifique (CNRS), priority 2008, dated 2014).

Structures can show the parent of a compound that is named as a salt.

The test system of data set [1] is GSK-3-phosphorylated β-catenin. Description: β-catenin phosphorylation at GSK-3 sites in SH-SY5Y cells (Western blot / ELISA). In kind it is cell-based, human. The following applies: 6 hours, 10 μM or range of concentrations, with 2 μM MG132. How it is done:
2a. […] The level of GSK-3-phosphorylated β-catenin was estimated by Western blotting following SDS-PAGE, using an antibody that specifically cross-reacts with GSK-3 phosphorylated β-catenin. […] 2b. Dose-response curves for a selection of indirubins were run in an ELISA assay using the same antibodies directed against GSK-3 phosphorylated β-catenin. SH-SY5Y cells were exposed for 6 hours to a range of concentrations of each indirubin, in the presence of MG132, and extracts were assessed in the ELISA assay. Activity was expressed as percentage of phosphorylated β-catenin in untreated control cells.
Nearly confluent SH-SY5Y human neuroblastoma cells were grown in 96 plates in DMEM (supplemented with 10% FCS and antibiotics). Cells were co-treated with tested compounds and 2 μM MG132 (to allow accumulation of phosphorylated β-catenin) for 6 hours. […] Cells were then subjected to an ELISA assay using antibodies directed against Ser33/Ser37/Thr41-phosphorylated (1:1000) p-catenin obtained from Cell Signaling Technology. Results are expressed in percentage of maximal β-Catenin phosphorylation, i.e. in untreated cells exposed to MG132 only as positive control (100% phosphorylation).
Cells were resuspended, lysed for 30 min at 4° C. in Homogenization Buffer and sonicated. After centrifugation (14000 r.p.m. for 15 min at 4° C.), the protein concentration was determined in the supernatants by the Bradford protein assay (Bio-Rad). Following heat denaturation for 5 min, proteins were separated by 10% NuPAGE pre-cast Bis-Tris Acetate polyacrylamide mini gel (Invitrogen) with MOPS SDS running buffer. Proteins were transferred to 0.45 μm nitrocellulose filters (Schleicher and Schuell). These were blocked with 5% low fat milk in Tris-Buffered Saline—Tween-20, incubated overnight at 4° C. with antibodies directed against Ser33/Ser37/Thr41-phosphorylated β-catenin (1:1000) (Cell Signaling Technology) and analyzed by Enhanced Chemiluminescence (ECL, Amersham).
Cells were exposed to various concentrations […] of each indirubin in the presence of a constant level of MG132 (an inhibitor of the proteasome which prevented the rapid degradation of β-catenin once phosphorylated by GSK-3). The level of GSK-3-phosphorylated was estimated either by Western blotting (with an antibody that specifically cross-reacts with β-catenin when phosphorylated at a GSK-3 site) following SDS-PAGE (FIG. 2a) or by an ELISA assay (FIG. 2b). […] Dose-response curves were obtained with ELISA assay (FIG. 2b).

For the next data set, the target named is GSK-3α/β. Description: GSK-3α/β kinase assay (GS-1 substrate, 15 μM ATP). In kind it is biochemical, porcine. The note with it: 30° C., 30 min, read-out: GSK3 IC50. On the procedure: (§1) Blank values were subtracted and activities calculated as pmoles of phosphate incorporated during a […] incubation. The activities were expressed in % of the maximal activity, i.e. in the absence of inhibitors. Controls were performed with appropriate dilutions of dimethylsulfoxide. Phosphorylation of the substrate was assessed by the P81 phosphocellulose assay.
GSK-3α/β was purified from porcine brain by affinity chromatography on immobilized axin^5. […] ATP (3,000 Ci/mmol; 10 mCi/ml) in a final volume of 30 μl. After 30 min. incubation at 30° C., 25 μl aliquots of supernatant were processed as described above.

A further data set concerns the target CDK1/cyclin B. The data set can be described thus: CDK1/cyclin B kinase assay (histone H1, 15 μM ATP). In kind it is biochemical, starfish (Marthasterias glacialis). The following applies: 30° C., 30 min.
For another data set, the target named is CDK5/p25 (Homo sapiens, UniProt Q00535). Description: CDK5/p25 kinase assay (histone H1, 15 μM ATP). The following applies: 30° C., 30 min. In kind it is biochemical. On the procedure:
as §1
CDK5/p25 was reconstituted by mixing equal amounts of recombinant human CDK5 and p25 expressed in E. coli as GST (Glutathione-S-transferase) fusion proteins and purified by affinity chromatography on glutathione-agarose (p25 is a truncated version of p35, the 35 kDa CDK5 activator). Its activity was assayed with histone H1 in buffer C as described for CDK1/cyclin B.

Chain of CDK5/p25 (Q00535 whole entry): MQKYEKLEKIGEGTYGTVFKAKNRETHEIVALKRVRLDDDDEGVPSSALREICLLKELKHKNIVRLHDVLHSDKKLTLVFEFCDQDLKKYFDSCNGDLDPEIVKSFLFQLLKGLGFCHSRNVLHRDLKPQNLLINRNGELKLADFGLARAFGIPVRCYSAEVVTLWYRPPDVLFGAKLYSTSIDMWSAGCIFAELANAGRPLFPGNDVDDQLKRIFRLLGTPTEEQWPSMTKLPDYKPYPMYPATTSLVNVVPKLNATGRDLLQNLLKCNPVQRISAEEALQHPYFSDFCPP
Chain of CDK5/p25 (Q15078 99-307 partner limits assumed): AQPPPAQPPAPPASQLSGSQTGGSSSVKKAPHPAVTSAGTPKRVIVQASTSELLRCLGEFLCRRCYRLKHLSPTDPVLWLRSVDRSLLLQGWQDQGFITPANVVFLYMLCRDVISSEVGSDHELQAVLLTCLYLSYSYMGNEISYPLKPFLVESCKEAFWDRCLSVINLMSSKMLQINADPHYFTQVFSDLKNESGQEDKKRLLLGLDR

As to `CN1C(=O)C(=C2Nc3ccccc3C2=NO)c2ccc(Br)cc21` [1-methyl-6BIO, reference compound], the “Inhibition of β-catenin phosphorylation at GSK-3 sites” value (from here on “Inhibition”) in data set [1] was “ineffective”.
In general, IC50 refers to the midpoint of a concentration-inhibition curve. A word on the melting point: it is the temperature, or range, at which the solid turns liquid. `O=C1Nc2cc(Br)ccc2/C1=C1/Nc2ccccc2/C1=N\OCCBr` [Cpd 1, (2′Z-3′E)-6-Bromoindirubin-3-[O-(2-bromoethyl)-oxime]]: the melting point worked out at 252 °C. Moreover, on GSK-3α/β, the IC50 is 0.14 µM. The IC50 against CDK1/cyclin B is greater than 10 µM.
As to `O=C1Nc2cc(Br)ccc2/C1=C1/Nc2ccccc2/C1=N\OCCO` [Cpd 2, (2′Z-3′E)-6-Bromoindirubin-3′-[O-(2-hydroxyethyl)-oxime]], the IC50 against CDK5/p25 came out at 5 µM; at GSK-3α/β it was 1.7 µM; at CDK1/cyclin B it was 1.7 µM.
Regarding `O=C1Nc2cc(Br)ccc2/C1=C1/Nc2ccccc2/C1=N\OCC(O)CO` (stereo not shown) [Cpd 3, (2′Z-3′E)-6-Bromoindirubin-3′-[O-(2,3-dihydroxypropyl)-oxime]], the melting point is greater than 300 °C. The IC50 at CDK5/p25 came to 0.025 µM. Moreover, the IC50 at GSK-3α/β stood at 0.034 µM. The “Inhibition” value in data set [1] is listed as “most efficient”. Further, on CDK1/cyclin B, 0.11 µM corresponded to half-maximal inhibition (IC50).
With `CCN(CC)C(=O)O/N=C1/C(=C2/C(=O)Nc3cc(Br)ccc32)Nc2ccccc21` [Cpd 4, (2′Z-3′E)-6-Bromoindirubin-3′-[O-(N,N-diethylcarbamyl)-oxime]], the melting point stood at 237 °C. The IC50 at GSK-3α/β came to 0.03 µM. On CDK1/cyclin B, this compound showed an IC50 greater than 10 µM.
On to `CN(C)CCO/N=C1/C(=C2/C(=O)Nc3cc(Br)ccc32)Nc2ccccc21` [Cpd 5, (2′Z-3′E)-6-Bromoindirubin-3′-[O-(2-dimethylaminoethyl)-oxime]], for which the “Inhibition” value in data set [1] is listed as “most efficient”.
For the compound `CCN(CC)CCO/N=C1/C(=C2/C(=O)Nc3cc(Br)ccc32)Nc2ccccc21` [Cpd 6, (2′Z-3′E)-6-Bromoindirubin-3′-[O-(2-diethylaminoethyl)-oxime]], the half-inhibitory concentration (IC50) was 0.02 µM against CDK5/p25, 0.035 µM at GSK-3α/β and 0.09 µM on CDK1/cyclin B.
On to `O=C1Nc2cc(Br)ccc2/C1=C1/Nc2ccccc2/C1=N\OCCN1CCCC1` [Cpd 7, (2′Z-3′E)-6-Bromoindirubin-3′-[O-(2-pyrrolidin-1-ylethyl)oxime]], for which the IC50 came to 0.13 µM at CDK5/p25, 0.026 µM at GSK-3α/β and 0.5 µM at CDK1/cyclin B.
With `O=C1Nc2cc(Br)ccc2/C1=C1/Nc2ccccc2/C1=N\OCCN1CCOCC1` [Cpd 8, (2′Z-3′E)-6-Bromoindirubin-3′-[O-(2-morpholin-1-ylethyl)oxime]], the melting point stood at 235 °C.
Regarding `O=C1Nc2cc(Br)ccc2/C1=C1/Nc2ccccc2/C1=N\OCCN(CCO)CCO` [Cpd 9], the melting point was 201 °C. Besides, in data set [1], the “Inhibition” value is “most efficient”.
`CN(CCO/N=C1/C(=C2/C(=O)Nc3cc(Br)ccc32)Nc2ccccc21)CC(O)CO` (stereo not shown) [Cpd 10, (2′Z-3′E)-6-Bromoindirubin-3′-(O-{2-[-methyl, N-(2,3-dihydroxypropyl)amino]ethyl}oxime]] showed a melting point of 195 °C. The compound also gave a half-inhibitory concentration (IC50) against CDK5/p25 of 0.24 µM. Further, the IC50 at GSK-3α/β stood at 0.067 µM. This compound also showed an IC50 against CDK1/cyclin B of 0.24 µM.
As for `O=C1Nc2cc(Br)ccc2/C1=C1/Nc2ccccc2/C1=N\OCCN1CCNCC1` [Cpd 11, (2′Z-3′E)-6-Bromoindirubin-3′-[O-(2-piperazine-1-ylethyl)oxime]], in data set [1], the “Inhibition” value is on record as “most efficient”.
As for `CN1CCN(CCO/N=C2/C(=C3/C(=O)Nc4cc(Br)ccc43)Nc3ccccc32)CC1` [Cpd 12, (2′Z-3′E)-6-Bromoindirubin-3′-{O-[2-(4-methyl-piperazin-1-yl)ethyl]oxime}], the IC50 against CDK5/p25 was determined as 0.4 µM; at GSK-3α/β it was 0.007 µM; against CDK1/cyclin B, 0.4 µM. Moreover, in data set [1], the “Inhibition” value is “most efficient”.
As to `O=C1Nc2cc(Br)ccc2/C1=C1/Nc2ccccc2/C1=N\OCCN1CCN(CCO)CC1` [Cpd 13], the “Inhibition” value in data set [1] is “most efficient”.
For the compound `COCCN1CCN(CCO/N=C2/C(=C3/C(=O)Nc4cc(Br)ccc43)Nc3ccccc32)CC1` [Cpd 14], the IC50 is 0.5 µM at CDK5/p25, 0.011 µM on GSK-3α/β and 2.8 µM at CDK1/cyclin B.
Regarding `CN(C)CCO/N=C1/C(=C2/C(=O)Nc3cc(Br)ccc32)Nc2ccccc21` [Cpd 16, (2′Z-3′)-6-Bromoindirubin-3′-[O-(2-dimethylaminoethyl)oxime]Hydrochloride], the “Inhibition” value in data set [1] is on record as “most efficient”.
`CCN(CC)CCO/N=C1/C(=C2/C(=O)Nc3cc(Br)ccc32)Nc2ccccc21` [Cpd 17, (2′Z-3′E)-6-Bromoindirubin-3′-[O-(2-diethylaminoethyl)oxime]Hydrochloride]: the IC50 amounted to 0.04 µM on CDK5/p25, 0.027 µM on GSK-3α/β and 0.19 µM against CDK1/cyclin B.
The like results for `O=C1Nc2cc(Br)ccc2/C1=C1/Nc2ccccc2/C1=N\OCCN1CCCC1` [Cpd 18, (2′Z-3′)-6-Bromoindirubin-3′-[O-(2-pyrrolidin-1-ylethyl)oxime]Hydrochloride] were, in that order, 0.1 µM, 0.054 µM and 0.45 µM.
`CN(CCON=C1C(=C2C(=O)Nc3cc(Br)ccc32)Nc2ccccc21)CC(O)CO` (stereo not shown) [Cpd 21]: the half-maximal inhibitory concentration (IC50) is 0.1 µM against CDK5/p25, 0.023 µM at GSK-3α/β and 0.15 µM against CDK1/cyclin B.
In turn, `O=C1Nc2cc(Br)ccc2/C1=C1/Nc2ccccc2/C1=N\OCCN1CCNCC1` [Cpd 22, (2′Z-3′E)-6-Bromoindirubin-3′-[O-(2-piperazine-1-ylethyl)oxime]Dihydrochloride] returned an IC50 against CDK5/p25 of 0.18 µM. Besides, the “Inhibition” value in data set [1] is listed as “most efficient”.
Turning to `CN1CCN(CCO/N=C2/C(=C3/C(=O)Nc4cc(Br)ccc43)Nc3ccccc32)CC1` [Cpd 23, (2′Z-3′E)-6-Bromoindirubin-3′-{O-[2-(4-methylpiperazin-1-yl)ethyl]oxime}Dihydrochloride], the IC50 is 0.3 µM against CDK5/p25, 0.005 µM on GSK-3α/β and 0.3 µM against CDK1/cyclin B. In addition, the “Inhibition” value in data set [1] is reported as “most efficient”.
In the case of `O=C1Nc2cc(Br)ccc2/C1=C1/Nc2ccccc2/C1=N\OCCN1CCN(CCO)CC1` [Cpd 24], in data set [1], the “Inhibition” value was “most efficient”.
With `COCCN1CCN(CCO/N=C2/C(=C3/C(=O)Nc4cc(Br)ccc43)Nc3ccccc32)CC1` [Cpd 25], the IC50 against CDK5/p25 is 0.4 µM; at GSK-3α/β, 0.02 µM; against CDK1/cyclin B it was 1 µM.
For `O=C1Nc2cc(Br)ccc2/C1=C1/Nc2ccccc2/C1=N\OCCN1CCN(CCOCCO)CC1` [Cpd 26, (2′Z-3′E)-6-Bromoindirubin-3′-[O-(2-{4-[2-(2-hydroxyethoxy)-ethyl]piperazin-1-yl}ethyl)oxime]Dihydrochloride], the IC50 on CDK5/p25 was found to be 0.33 µM; at GSK-3α/β it was 0.033 µM; on CDK1/cyclin B it was 0.5 µM.
